Experiments:
[1] = Stability of sample in open dish exposed to the air at ambient temperature (color change); format: physicochemical
Method: (§1) 17.9 g of halide-free glucosamine base was mixed with 150 cc of purified water in a reaction vessel. After a clear solution was obtained, 16 g of α-hydroxy octanoic acid were slowly added, with stirring, to the glucosamine base solution. It was noted that the reaction was slightly exothermic since the temperature rose to 35° C. The reaction mixture was filtered and the water was removed by freeze-drying at a pressure of about 200 milliTorre and a temperature of about −45° C. 33 g of an off-white crystalline powder were obtained. The product was placed in a capped bottle that was placed in the refrigerator. […] A sample of the product was placed in an open dish exposed to the air at ambient temperature.
Example 1 was repeated using 300 cc of purified water to which 16.5 g of polyethylene glycol homopolymer had been added. 49 g (97.2% yield) of the white salt product were obtained. A sample of this product was placed in an open dish exposed to the air at ambient temperature.
A sample of the Example 3 product was placed in a dish exposed to the air at ambient temperature. […] A sample of the Example 4 product was placed in a dish exposed to the air at ambient temperature.

[2] = Stability of product kept in capped bottle in the refrigerator (color); format: physicochemical; conditions: six months
Method: as §1

| SMILES | color of sample after exposure to the air at ambient temperature ([1]; open dish, 3 days) | color of product kept in the refrigerator [2] | color of sample after exposure to the air at ambient temperature ([1]; dish, 1 day) |
| --- | --- | --- | --- |
| CCCCCCC(O)C(=O)O.NC1C(O)OC(CO)C(O)C1O (stereo not drawn) [Example 1] | developed a yellow color | remained off-white in color | – |
| N[C@H]1C(O)O[C@H](CO)[C@@H](O)[C@@H]1O.O=C(O)CC(O)(CC(=O)O)C(=O)O [Example 3] | – | – | developed a yellow-orange color |

From patent US7754875B1, “Halide-free glucosamine base-organic acid salt compositions” (JFC Technologies, LLC, priority 2004, dated 2010)
